This note sets out measurements from patent publication US20160297830A1, “NOVEL COMPOUNDS USEFUL FOR THE TREATMENT OF BACTERIAL INFECTIOUS DISEASES” (GALAPAGOS NV, priority 2013, published 2016).

Converted amounts (≈) assume the structure as drawn.

The subject of the experiment is H. influenza Hi4 efflux pump KO. The experiment is described as follows: Antibacterial activity assay (MIC), H. influenza Hi4. The format is cell-based.

In the case of “8-O-4-Bromo-5-Chloro-1H-pyrrole-2′-carbonylbranimycin [Compound 35]”, the “MIC Hi4 efflux pump KO” value amounted to 16 µg/mL.

As for “8-O-5-Bromo-4-Chloro-1H-pyrrole-2′-carbonylbranimycin [Compound 33]”, the “MIC Hi4 efflux pump KO” value was 16 µg/mL.

`COC[C@H]1[C@@H](O)[C@@H]2O[C@@]34/C(C)=C/[C@@H](C)[C@@H]([C@H](O)COC)OC(=O)[C@H](COC)[C@H]3C=C[C@@H]2[C@H]4[C@@H]1O` [Branimycin, reference compound] returned an MIC of 4 µg/mL (≈ 8.29 µM).

As for `COC[C@@H](O)[C@H]1OC(=O)[C@H](COC)[C@H]2C=C[C@H]3[C@H]4O[C@]2(/C(C)=C/[C@H]1C)[C@@H]3[C@H](O)[C@@H](C)[C@H]4O` [Compound 1, Baleomycin], the MIC stood at 2 µg/mL (≈ 4.42 µM).

`COC[C@@H]1[C@@H](O)[C@@H]2[C@H]3C=C[C@@H]4[C@@H](COC)C(=O)O[C@H]([C@H](O)COC)[C@H](C)/C=C(\C)[C@@]24O[C@H]3[C@@H]1OC(=O)c1ccc[nH]1` [Compound 2, 8-O-1H-pyrrole-2′-carbonylbranimycin] showed an MIC of 4 µg/mL (≈ 6.95 µM).

As to `COC[C@@H](O)[C@H]1OC(=O)[C@H](COC)[C@H]2C=C[C@H]3[C@H]4O[C@]2(/C(C)=C/[C@H]1C)[C@@H]3[C@H](O)[C@@H](C)[C@H]4OC(=O)c1ccc[nH]1` [Compound 3, 8-O-1H-pyrrole-2′-carbonylbaleomycin], the MIC was found to be 1 µg/mL (≈ 1.83 µM).

`COCC[C@H]1OC(=O)[C@H](COC)[C@H]2C=C[C@H]3[C@H]4O[C@]2(/C(C)=C/[C@H]1C)[C@@H]3[C@H](O)[C@@H](COC)[C@H]4OC(=O)c1ccc[nH]1` [Compound 4, 17-Deoxy-8-O-1H-pyrrole-2′-carbonylbranimycin] showed an MIC of 16 µg/mL (≈ 28.6 µM).

With `COC[C@@H]1[C@@H](O)[C@@H]2[C@H]3C=C[C@@H]4[C@@H](COC)C(=O)O[C@H]([C@H](O)COC)[C@H](C)/C=C(\C)[C@@]24O[C@H]3[C@@H]1OC(=O)c1ccoc1` [Compound 5, 8-O-Furane-3′-carbonylbranimycin], the MIC was 8 µg/mL (≈ 13.9 µM).

`COC[C@@H]1[C@@H](O)[C@@H]2[C@H]3C=C[C@@H]4[C@@H](COC)C(=O)O[C@H]([C@H](O)COC)[C@H](C)/C=C(\C)[C@@]24O[C@H]3[C@@H]1OC(=O)c1ccc(C)[nH]1` [Compound 6, 8-O-5-Methyl-1H-pyrrole-2′-carbonylbranimycin]: the MIC was found to be 32 µg/mL (≈ 54.3 µM).

`COC[C@@H](O)[C@H]1OC(=O)[C@H](COC)[C@H]2C=C[C@H]3[C@H]4O[C@]2(/C(C)=C/[C@H]1C)[C@@H]3[C@H](O)[C@@H](C)[C@H]4OC(=O)c1ccoc1` [Compound 7, 8-O-Furane-3′-carbonylbaleomycin] displayed an MIC of 0.5 µg/mL (≈ 0.915 µM).

In turn, `COC[C@@H]1[C@@H](O)[C@@H]2[C@H]3C=C[C@@H]4[C@@H](COC)C(=O)O[C@H]([C@H](O)COC)[C@H](C)/C=C(\C)[C@@]24O[C@H]3[C@@H]1OC(=O)c1cocn1` [Compound 8, 8-O-Oxazole-4′-carbonylbranimycin] displayed an MIC of more than 64 µg/mL.

Compound `COC[C@@H]1[C@@H](O)[C@@H]2[C@H]3C=C[C@@H]4[C@@H](COC)C(=O)O[C@H]([C@H](O)COC)[C@H](C)/C=C(\C)[C@@]24O[C@H]3[C@@H]1OC(=O)c1ccsc1` [Compound 9, 8-O-Thiophene-3′-carbonylbranimycin] showed an MIC of 16 µg/mL (≈ 27 µM).

`COC[C@@H]1[C@@H](O)[C@@H]2[C@H]3C=C[C@@H]4[C@@H](COC)C(=O)O[C@H]([C@H](O)COC)[C@H](C)/C=C(\C)[C@@]24O[C@H]3[C@@H]1OC(=O)c1cc[nH]n1` [Compound 10, 8-O-1H-Pyrazole-3′-carbonylbranimycin] registered an MIC of 32 µg/mL (≈ 55.5 µM).

Take `COC[C@@H]1[C@@H](O)[C@@H]2[C@H]3C=C[C@@H]4[C@@H](COC)C(=O)O[C@H]([C@H](O)COC)[C@H](C)/C=C(\C)[C@@]24O[C@H]3[C@@H]1OC(=O)c1ccoc1C` [Compound 11, 8-O-2-Methylfurane-3′-carbonylbranimycin]: the MIC worked out at 32 µg/mL (≈ 54.2 µM).

For the compound `COC[C@@H]1[C@@H](O)[C@@H]2[C@H]3C=C[C@@H]4[C@@H](COC)C(=O)O[C@H]([C@H](O)COC)[C@H](C)/C=C(\C)[C@@]24O[C@H]3[C@@H]1OC(=O)c1cc(C)c[nH]1` [Compound 12, 8-O-4-Methyl-1H-pyrrole-2′-carbonylbranimycin], the MIC came out at 4 µg/mL (≈ 6.78 µM).

The compound `COC[C@@H]1[C@@H](O)[C@@H]2[C@H]3C=C[C@@H]4[C@@H](COC)C(=O)O[C@H]([C@H](O)COC)[C@H](C)/C=C(\C)[C@@]24O[C@H]3[C@@H]1OC(=O)c1ccon1` [Compound 13, 8-O-Isoxazole-3′-carbonylbranimycin] returned an MIC of 16 µg/mL (≈ 27.7 µM).

`COC[C@@H]1[C@@H](O)[C@@H]2[C@H]3C=C[C@@H]4[C@@H](COC)C(=O)O[C@H]([C@H](O)COC)[C@H](C)/C=C(\C)[C@@]24O[C@H]3[C@@H]1OC(=O)c1cnco1` [Compound 14, 8-O-Oxazole-5′ carbonylbranimycin] displayed an MIC of 64 µg/mL (≈ 111 µM).

As for `COC[C@H]1[C@@H](O)[C@@H]2O[C@@]34/C(C)=C/[C@@H](C)[C@@H]([C@H](O)COC)OC(=O)[C@H](COC)[C@H]3CC[C@@H]2[C@H]4[C@@H]1O` [Compound 15, 4,5-Dihydro-branimycin], the MIC came to 64 µg/mL (≈ 132 µM).

In the case of `COC[C@@H]1[C@@H](O)[C@@H]2[C@H]3CC[C@@H]4[C@@H](COC)C(=O)O[C@H]([C@H](O)COC)[C@H](C)/C=C(\C)[C@@]24O[C@H]3[C@@H]1OC(=O)c1ccc[nH]1` [Compound 16, 4,5-Dihydro-8-O-1H-pyrrole-2′-carbonylbranimycin], the MIC stood at 16 µg/mL (≈ 27.7 µM).

`COCC[C@H]1OC(=O)[C@H](COC)[C@H]2C=C[C@H]3[C@H]4O[C@]2(/C(C)=C/[C@H]1C)[C@@H]3[C@H](O)[C@@H](COC)[C@H]4O` [Compound 17, 17-Deoxybranimycin]: the MIC is 8 µg/mL (≈ 17.1 µM).

In the case of `COC[C@@H]1[C@@H](O)[C@@H]2[C@H]3C=C[C@@H]4[C@@H](COC)C(=O)O[C@H]([C@@H](COC)OC)[C@H](C)/C=C(\C)[C@@]24O[C@H]3[C@@H]1OC(=O)c1ccc[nH]1` [Compound 18, 17-O-Methyl-8-O-1H-pyrrole-2′-carbonylbranimycin], the MIC amounted to 4 µg/mL (≈ 6.78 µM).

As for `COC[C@@H]1[C@@H](O)[C@@H]2[C@H]3C=C[C@@H]4[C@@H](COC)C(=O)O[C@H]([C@H](O)COC)[C@H](C)/C=C(\C)[C@@]24O[C@H]3[C@@H]1OC(=O)c1cc(F)c[nH]1` [Compound 19, 8-O-4-Fluoro-1H-pyrrole-2′-carbonylbranimycin], the MIC came to 0.25 µg/mL (≈ 0.421 µM).

`COCC(=O)[C@H]1OC(=O)[C@H](COC)[C@H]2C=C[C@H]3[C@H]4O[C@]2(/C(C)=C/[C@H]1C)[C@@H]3[C@H](O)[C@@H](COC)[C@H]4OC(=O)c1ccc[nH]1` [Compound 20, 18-Deoxy-18-oxo-8-O-1H-pyrrole-2′-carbonylbranimycin] yielded an MIC of 32 µg/mL (≈ 55.8 µM).

Consider `COC[C@@H]1[C@@H](O)[C@@H]2[C@H]3C=C[C@@H]4[C@@H](COC)C(=O)OC[C@H](C)/C=C(\C)[C@@]24O[C@H]3[C@@H]1OC(=O)c1ccc[nH]1` [Compound 22, 17,18-Dinor-8-O-1H-pyrrole-2′-carbonybranimycin], for which the MIC is 32 µg/mL (≈ 63.8 µM).

For the compound `COC[C@@H](O)[C@H]1OC(=O)[C@H](COC)[C@H]2C=C[C@H]3[C@H]4O[C@]2(/C(C)=C/[C@H]1C)[C@@H]3[C@H](O)[C@@H](C)[C@H]4OC(=O)c1cc(F)c[nH]1` [Compound 23, 8-O-4-Fluoro-1H-pyrrole-2′-carbonylbaleomycin], the MIC was 0.5 µg/mL (≈ 0.887 µM).

Consider `COC[C@@H]1[C@@H](O)[C@@H]2[C@H]3C=C[C@@H]4[C@@H](COC)C(=O)O[C@H](C(C)(O)COC)[C@H](C)/C=C(\C)[C@@]24O[C@H]3[C@@H]1OC(=O)c1ccc[nH]1` (stereo partly drawn) [Compound 24, 17-Methyl-8-O-1H-pyrrole-2′-carbonylbranimycin], for which the MIC was 8 µg/mL (≈ 13.6 µM).

Regarding `COCC(=NO)[C@H]1OC(=O)[C@H](COC)[C@H]2C=C[C@H]3[C@H]4O[C@]2(/C(C)=C/[C@H]1C)[C@@H]3[C@H](O)[C@@H](COC)[C@H]4OC(=O)c1ccc[nH]1` [Compound 25, 18-Deoxy-18-oximino-8-O-1H-pyrrole-2′-carbonylbranimycin], the MIC was 1 µg/mL (≈ 1.7 µM).

For `COC[C@@H]1[C@@H](O)[C@@H]2[C@H]3C=C[C@@H]4[C@@H](COC)C(=O)O[C@H]([C@H](O)COC)[C@H](C)/C=C(\C)[C@@]24O[C@H]3[C@@H]1OC(=O)c1cc(C#N)c[nH]1` [Compound 26, 8-O-4-Cyano-1H-pyrrole-2′-carbonylbranimycin], the MIC was determined as 8 µg/mL (≈ 13.3 µM).

In turn, `COC/C(=N\OC)[C@H]1OC(=O)[C@H](COC)[C@H]2C=C[C@H]3[C@H]4O[C@]2(/C(C)=C/[C@H]1C)[C@@H]3[C@H](O)[C@@H](COC)[C@H]4OC(=O)c1ccc[nH]1` [Compound 27, 18-Deoxy-18-methoximino-8-O-1H-pyrrole-2′-carbonylbranimycin] showed an MIC of 8 µg/mL (≈ 13.3 µM).

For the compound `COC[C@@H]1[C@@H](O)[C@@H]2[C@H]3C=C[C@@H]4[C@@H](COC)C(=O)O[C@H]([C@H](O)COC)[C@H](C)/C=C(\C)[C@@]24O[C@H]3[C@@H]1OC(=O)c1cc(Cl)c[nH]1` [Compound 28, 8-O-4-Chloro-1H-pyrrole-2′-carbonylbranimycin], the MIC turned out to be 4 µg/mL (≈ 6.56 µM).

The compound `COCC(=NOC(C)=O)[C@H]1OC(=O)[C@H](COC)[C@H]2C=C[C@H]3[C@H]4O[C@]2(/C(C)=C/[C@H]1C)[C@@H]3[C@H](O)[C@@H](COC)[C@H]4OC(=O)c1ccc[nH]1` [Compound 29, 18-Acetylimino-18-deoxy-8-O-1H-pyrrole-2′-carbonylbranimycin] came in with an MIC of 2 µg/mL (≈ 3.17 µM).

Consider `COC[C@@H](O)[C@H]1OC(=O)[C@H](COC)[C@H]2C=C[C@H]3[C@H]4O[C@]2(/C(C)=C/[C@H]1C)[C@@H]3[C@H](O)[C@@H](C)[C@H]4OC(=O)c1cc(Cl)c[nH]1` [Compound 30, 8-O-4-Chloro-1H-pyrrole-2′-carbonylbaleomycin], for which the MIC was determined as 4 µg/mL (≈ 6.9 µM).

As to `COC[C@@H]1[C@@H](O)[C@@H]2[C@H]3C=C[C@@H]4[C@@H](COC)C(=O)O[C@H]([C@H](O)COC)[C@H](C)/C=C(\C)[C@@]24O[C@H]3[C@@H]1OC(=O)c1cc(Br)c[nH]1` [Compound 32, 8-O-4-Bromo-1H-pyrrole-2′-carbonylbranimycin], the MIC stood at 4 µg/mL (≈ 6.11 µM).
